Test results reported in patent US7550497B2, “Phosphoramide derivatives” (Palau Pharma, S.A., priority 2002, dated 2009).

Legend:
[1] = test system: carrageenan-induced paw edema; assay: Rat carrageenan-induced paw edema assay; assay type: in vivo; conditions: male Sprague Dawley rats, 3 mg/kg i.v., 10 min before carrageenan, paw volume 1-4 h
Method: Test 1.—Rat Carrageenan-Induced Paw Edema Assay
Male Sprague Dawley rats (150-175 g) are used. The animals are fasted during 18 hours prior to the experiment and kept with water ad libitum, and are randomly distributed into the different groups of treatment. Inflammation is induced by injecting 0.1 mL of 1% λ-carrageenan solution (Sigma) to the animals' right hindpaw, and the inflammatory response (increase in paw volume) is measured with a plethysmometer (UGO BASILE). Paw volumes are measured just before the administration of test compounds and at 1, 2, 3 and 4 hours after the injection of carrageenan. The compounds are administered through the tail vein, dissolved in DMSO and saline (1 mL/Kg), 10 minutes before the injection of carrageenan. At the same time, 5 mL of water are administered by the oral route in order to facilitate hydration and subsequent inflammatory reaction. The percentages of inhibition of the different treatments tested are calculated by comparing the area under the curve obtained for the treated animals versus the one obtained for the control group. Said areas are obtained by integration from a graphical representation of paw volume versus time.
The results obtained with representative compounds of the present invention are shown in the following table, where the % of inhibition of inflammation at a dose of 3 mg/kg i.v. of test compound are reported.

[2] = test system: carrageenan-induced hyperalgesia; assay: Rat carrageenan-induced hyperalgesia test; assay type: in vivo; conditions: male Sprague Dawley rats, 3 mg/Kg intravenous, especially at 120 min after administration
Method: Test 3.—Rat Carrageenan-Induced Hyperalgesia Test
Male Sprague Dawley rats, randomly distributed into the different groups of treatment, are used. Inflammation is induced by injection of a carrageenan suspension (0.75 mg per paw in 0.05 mL of saline) into the animals' right hind foot pad. One hour 45 min later the test compounds are administered by intravenous route. Two hours after carrageenan injection, hyperalgesia is induced at different times in both hindpaws by using a heat source. At each time, the time of latency till the withdrawal of the paw from the heat source is determined for the control group (vehicle) and the treatment groups, and the result is expressed as the increase of the latency time of the inflammed paw of the treated group versus the control group.

Compound | % inhibition of inflammation (paw volume AUC vs control) [1] | analgesic activity (increase of latency time of the inflamed paw vs control) [2]
Diethyl N-[4-[4-chloro-5-(3-fluoro methoxyphenyl)imidazol-1-yl]phenylsulfonyl]phosphoramidate [Example 1] | 20.7% | –
CCOP(=O)([O-])NS(=O)(=O)c1ccc(-n2cnc(Cl)c2-c2ccc(OC)c(F)c2)cc1.[Na+] [Example 4, Ethyl N-[4-[4-chloro-5-(3-fluoro-4-methoxyphenyl)imidazol-1-*yl]phenylsulfonyl]phosphoramidate Sodium Salt] | 23.3% | –
COc1ccc(-c2c(Cl)ncn2-c2ccc(S(=O)(=O)NP(=O)(O)O)cc2)cc1F [Example 6, N-[4-[4-Chloro-5-(3-fluoro-4-methoxyphenyl)imidazol-1-yl]phenylsulfonyl]phosphoramidic Acid] | 34.8% | significant analgesic activity
